# In US20080234262A1 (Wyeth, priority 2007, published 2008):
# Experiments:
# PI3K = PI3K (Homo sapiens, UniProt P42336); test: Fluorescence polarization assay for PI3K; format: biochemical; conditions: PI3Kα; read-out: PI3Kα IC50;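 also: PI3K kinase reaction on PIP2 with ATP, 30-60 min, product sensed by GST-GRP with red probe in fluorescence polarization (mP), controls without enzyme and at zero time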
# prostate line LNCap = test: In vitro cell culture growth assay (MTS), LNCap; format: cell-based, human; conditions: Homo sapiens, LNCaP, 72 h, LNCap cells, three days after drug treatment;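 also: viable cell density read by absorbance at 490 nm, growth expressed as percent of vehicle-treated cells on the same plate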
# breast line MDA468 = test: In vitro cell culture growth assay (MTS), MDA468; format: cell-based, human; conditions: Homo sapiens, 72 h, MDA468 cells, three days after drug treatment
# Outline: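 Growth measured as percent of same-plate vehicle control by MTS metabolic dye conversion (A490). Breast MDA468 and prostate LNCap cells, plated a day ahead, were exposed to compounds for 3 days.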
# Chain of PI3K (P42336 whole entry): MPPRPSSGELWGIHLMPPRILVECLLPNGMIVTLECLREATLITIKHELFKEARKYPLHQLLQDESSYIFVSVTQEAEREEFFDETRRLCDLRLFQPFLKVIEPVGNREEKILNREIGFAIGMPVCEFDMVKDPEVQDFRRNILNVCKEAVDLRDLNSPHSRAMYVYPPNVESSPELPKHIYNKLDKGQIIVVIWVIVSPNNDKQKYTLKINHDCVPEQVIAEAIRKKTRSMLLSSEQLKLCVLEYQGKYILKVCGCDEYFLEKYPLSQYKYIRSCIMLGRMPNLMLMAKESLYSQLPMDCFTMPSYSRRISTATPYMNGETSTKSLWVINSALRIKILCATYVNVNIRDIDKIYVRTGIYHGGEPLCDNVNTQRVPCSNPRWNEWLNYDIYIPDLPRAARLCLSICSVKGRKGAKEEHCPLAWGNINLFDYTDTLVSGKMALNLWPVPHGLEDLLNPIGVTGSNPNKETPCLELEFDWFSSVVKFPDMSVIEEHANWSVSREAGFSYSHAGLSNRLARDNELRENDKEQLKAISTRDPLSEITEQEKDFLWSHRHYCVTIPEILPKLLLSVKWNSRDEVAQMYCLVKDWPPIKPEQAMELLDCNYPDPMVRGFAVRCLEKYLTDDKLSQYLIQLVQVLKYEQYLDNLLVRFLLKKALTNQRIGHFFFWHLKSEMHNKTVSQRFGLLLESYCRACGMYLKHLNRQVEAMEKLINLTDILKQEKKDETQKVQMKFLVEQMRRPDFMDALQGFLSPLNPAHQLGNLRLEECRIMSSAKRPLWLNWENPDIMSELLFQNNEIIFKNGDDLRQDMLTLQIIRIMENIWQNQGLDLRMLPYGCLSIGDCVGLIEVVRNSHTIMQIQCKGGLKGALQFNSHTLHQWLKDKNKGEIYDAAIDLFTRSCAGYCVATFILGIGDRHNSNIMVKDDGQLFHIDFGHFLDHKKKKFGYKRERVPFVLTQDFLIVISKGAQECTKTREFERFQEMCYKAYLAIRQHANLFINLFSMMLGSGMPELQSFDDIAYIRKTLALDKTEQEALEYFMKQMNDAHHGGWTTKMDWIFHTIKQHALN
# Chain of PI3K (P27986 whole entry partner): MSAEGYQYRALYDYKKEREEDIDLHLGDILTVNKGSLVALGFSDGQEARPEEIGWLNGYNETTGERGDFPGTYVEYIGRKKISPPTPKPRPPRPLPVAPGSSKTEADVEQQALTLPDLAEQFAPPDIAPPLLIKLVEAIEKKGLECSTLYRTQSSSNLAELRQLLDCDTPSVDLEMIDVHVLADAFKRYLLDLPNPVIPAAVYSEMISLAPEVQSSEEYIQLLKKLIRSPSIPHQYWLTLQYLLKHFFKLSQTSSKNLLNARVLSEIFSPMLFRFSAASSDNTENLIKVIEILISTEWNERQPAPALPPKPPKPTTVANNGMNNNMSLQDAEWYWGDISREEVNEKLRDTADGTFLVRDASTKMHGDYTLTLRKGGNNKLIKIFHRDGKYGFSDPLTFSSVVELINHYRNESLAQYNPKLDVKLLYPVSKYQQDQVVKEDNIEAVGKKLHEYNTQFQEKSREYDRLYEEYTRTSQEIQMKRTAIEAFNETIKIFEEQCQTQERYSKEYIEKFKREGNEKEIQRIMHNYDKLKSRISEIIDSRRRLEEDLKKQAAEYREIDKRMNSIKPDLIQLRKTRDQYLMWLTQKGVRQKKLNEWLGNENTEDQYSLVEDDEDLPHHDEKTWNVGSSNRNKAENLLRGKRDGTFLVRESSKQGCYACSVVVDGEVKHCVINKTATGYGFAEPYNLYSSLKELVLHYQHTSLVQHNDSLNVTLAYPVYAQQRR
SMILES,IC50 (PI3K),IC50 (prostate line LNCap),IC50 (breast line MDA468)
"CNC(=O)Nc1ccc(-c2nc(N3CCOCC3)c3cnn(C4CCN(CCCCO)CC4)c3n2)cc1 [Compound 743, 1-(4-{1-[1-(4-hydroxybutyl)piperidin-4-yl]-4-morpholin-4-yl-1H-pyrazolo[3,4-d]pyrimidin-6-yl}phenyl)-3-methylurea]",212 nM,1800 nM,2200 nM
"COC(=O)Nc1ccc(-c2nc(N3CCOCC3)c3cnn(C4CCN(CCCCO)CC4)c3n2)cc1 [Compound 744, methyl (4-{1-[1-(4-hydroxybutyl)piperidin-4-yl]-4-morpholin-4-yl-1H-pyrazolo[3,4-d]pyrimidin-6-yl}phenyl)carbamate]",1050 nM,3500 nM,10200 nM
"CCNC(=O)Nc1ccc(-c2nc(N3CCOCC3)c3cnn(C4CCN(CCCCO)CC4)c3n2)cc1 [Compound 745, 1-ethyl-3-(4-{1-[1-(4-hydroxybutyl)piperidin-4-yl]-4-morpholin-4-yl-1H-pyrazolo[3,4-d]pyrimidin-6-yl}phenyl)urea]",550 nM,1300 nM,2900 nM
"O=C(NCCO)Nc1ccc(-c2nc(N3CCOCC3)c3cnn(C4CCN(CCCCO)CC4)c3n2)cc1 [Compound 746, 1-(4-{1-[1-(4-hydroxybutyl)piperidin-4-yl]-4-morpholin-4-yl-1H-pyrazolo[3,4-d]pyrimidin-6-yl}phenyl)-3-(2-hydroxyethyl)urea]",370 nM,29000 nM,30000 nM
"O=C(NCCF)Nc1ccc(-c2nc(N3CCOCC3)c3cnn(C4CCN(CCCCO)CC4)c3n2)cc1 [Compound 747, 1-(2-fluoroethyl)-3-(4-{1-[1-(4-hydroxybutyl)piperidin-4-yl]-4-morpholin-4-yl-1H-pyrazolo[3,4-d]pyrimidin-6-yl}phenyl)urea]",782 nM,3300 nM,6660 nM

# Now from value to molecule, other results behind:
IC50 (PI3K),IC50 (prostate line LNCap),SMILES,IC50 (breast line MDA468)
490 nM,< 27 nM,"CCNC(=O)Nc1ccc(-c2nc(N3CCOCC3)c3cnn(C4CCN(C(=O)OC)CC4)c3n2)cc1 [Compound 731, methyl 4-(6-{4-[(ethylcarbamoyl)amino]phenyl}-4-morpholin-4-yl-1H-pyrazolo[3,4-d]pyrimidin-1-yl)piperidine-1-carboxylate]",70 nM
402 nM,800 nM,"COC(=O)N1CCC(n2ncc3c(N4CCOCC4)nc(-c4ccc(NC(=O)NCCO)cc4)nc32)CC1 [Compound 733, methyl 4-[6-(4-{[(2-hydroxyethyl)carbamoyl]amino}phenyl)-4-morpholin-4-yl-1H-pyrazolo[3,4-d]pyrimidin-1-yl]piperidine-1-carboxylate]",580 nM
1150 nM,565 nM,"COC(=O)N1CCC(n2ncc3c(N4CCOCC4)nc(-c4ccc(NC(=O)Nc5ccccn5)cc4)nc32)CC1 [Compound 736, methyl 4-(4-morpholin-4-yl-6-{4-[(pyridin-2-ylcarbamoyl)amino]phenyl}-1H-pyrazolo[3,4-d]pyrimidin-1-yl)piperidine-1-carboxylate]",17000 nM
34 nM,< 27 nM,"COC(=O)N1CCC(n2ncc3c(N4CCOCC4)nc(-c4ccc(NC(=O)Nc5cccnc5)cc4)nc32)CC1 [Compound 737, methyl 4-(4-morpholin-4-yl-6-{4-[(pyridin-3-ylcarbamoyl)amino]phenyl}-1H-pyrazolo[3,4-d]pyrimidin-1-yl)piperidine-1-carboxylate]",< 27 nM
153 nM,50 nM,"CNC(=S)Nc1ccc(-c2nc(N3CCOCC3)c3cnn(C4CCN(C(=O)OC)CC4)c3n2)cc1 [Compound 742, methyl 4-[6-(4-{[(methylamino)carbonothioyl]amino}phenyl)-4-morpholin-4-yl-1H-pyrazolo[3,4-d]pyrimidin-1-yl]piperidine-1-carboxylate]",220 nM
